US20100035867A1 (priority 2006, published 2010)

What was measured:
adenylyl cyclase = type: cell-based, human
[1] = target: T1, membrane guanylyl cyclase (guanylyl cyclase type B, GC-B) (Homo sapiens, UniProt P20594); assay: CNP-induced cyclic GMP accumulation in BE-2(C) neuroblastoma cells
T1 sequence (P20594 23-1047): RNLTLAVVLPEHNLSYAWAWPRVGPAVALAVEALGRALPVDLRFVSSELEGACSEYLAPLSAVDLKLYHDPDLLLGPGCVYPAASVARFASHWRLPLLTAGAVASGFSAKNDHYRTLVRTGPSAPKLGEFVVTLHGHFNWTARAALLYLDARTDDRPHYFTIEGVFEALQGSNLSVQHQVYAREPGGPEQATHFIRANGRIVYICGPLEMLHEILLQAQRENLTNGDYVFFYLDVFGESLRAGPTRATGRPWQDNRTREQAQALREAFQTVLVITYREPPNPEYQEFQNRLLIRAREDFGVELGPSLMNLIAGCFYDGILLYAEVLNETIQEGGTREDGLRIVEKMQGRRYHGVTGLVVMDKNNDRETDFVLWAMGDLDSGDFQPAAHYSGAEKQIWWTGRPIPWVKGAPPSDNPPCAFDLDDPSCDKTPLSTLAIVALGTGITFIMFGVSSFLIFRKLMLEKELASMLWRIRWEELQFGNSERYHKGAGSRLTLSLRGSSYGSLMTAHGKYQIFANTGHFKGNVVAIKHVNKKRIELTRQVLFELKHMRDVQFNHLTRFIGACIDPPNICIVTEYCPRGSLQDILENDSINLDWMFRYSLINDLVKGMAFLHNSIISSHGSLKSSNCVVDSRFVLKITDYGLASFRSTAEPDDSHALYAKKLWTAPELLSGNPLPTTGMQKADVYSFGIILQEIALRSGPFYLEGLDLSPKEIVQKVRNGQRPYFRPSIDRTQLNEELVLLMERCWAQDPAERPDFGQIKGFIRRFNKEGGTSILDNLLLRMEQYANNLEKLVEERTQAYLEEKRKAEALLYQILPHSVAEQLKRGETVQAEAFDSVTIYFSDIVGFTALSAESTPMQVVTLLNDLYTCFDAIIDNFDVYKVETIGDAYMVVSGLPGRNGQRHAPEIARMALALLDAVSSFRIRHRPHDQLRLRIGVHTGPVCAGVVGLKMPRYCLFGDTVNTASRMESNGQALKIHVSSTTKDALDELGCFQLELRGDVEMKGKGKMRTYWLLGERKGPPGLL

rabbit intestinal loop = assay: Liquid secretion induced by STa in a rabbit intestinal loop model; type: in vivo
Procedure: The test was performed by the method known in the art (Alcantara, C. S.; Jin, X. H.; Brito, G. A.; Carneiro-Filho, B. A.; Barrett, L. J.; Carey, R. M.; Guerrant, R. L., Angiotensin II subtype 1 receptor blockade inhibits Clostridium difficile toxin A-induced intestinal secretion in a rabbit model. J Infect Dis 2005, 191, (12), 2090-6). Volume of liquid in the loop was divided by the length of the loop and the normalized value was used to assess liquid accumulation in the intestinal lumen.

[2] = target: guanylyl cyclase type C (GC-C) (Homo sapiens, UniProt P25092); assay: STa-induced activation of GC-C in T84 cells (cyclic GMP accumulation, ELISA); type: cell-based; parameters: endogenous in cells; host or cells: T84 cells
Sequence of guanylyl cyclase type C (GC-C) (P25092 24-1073): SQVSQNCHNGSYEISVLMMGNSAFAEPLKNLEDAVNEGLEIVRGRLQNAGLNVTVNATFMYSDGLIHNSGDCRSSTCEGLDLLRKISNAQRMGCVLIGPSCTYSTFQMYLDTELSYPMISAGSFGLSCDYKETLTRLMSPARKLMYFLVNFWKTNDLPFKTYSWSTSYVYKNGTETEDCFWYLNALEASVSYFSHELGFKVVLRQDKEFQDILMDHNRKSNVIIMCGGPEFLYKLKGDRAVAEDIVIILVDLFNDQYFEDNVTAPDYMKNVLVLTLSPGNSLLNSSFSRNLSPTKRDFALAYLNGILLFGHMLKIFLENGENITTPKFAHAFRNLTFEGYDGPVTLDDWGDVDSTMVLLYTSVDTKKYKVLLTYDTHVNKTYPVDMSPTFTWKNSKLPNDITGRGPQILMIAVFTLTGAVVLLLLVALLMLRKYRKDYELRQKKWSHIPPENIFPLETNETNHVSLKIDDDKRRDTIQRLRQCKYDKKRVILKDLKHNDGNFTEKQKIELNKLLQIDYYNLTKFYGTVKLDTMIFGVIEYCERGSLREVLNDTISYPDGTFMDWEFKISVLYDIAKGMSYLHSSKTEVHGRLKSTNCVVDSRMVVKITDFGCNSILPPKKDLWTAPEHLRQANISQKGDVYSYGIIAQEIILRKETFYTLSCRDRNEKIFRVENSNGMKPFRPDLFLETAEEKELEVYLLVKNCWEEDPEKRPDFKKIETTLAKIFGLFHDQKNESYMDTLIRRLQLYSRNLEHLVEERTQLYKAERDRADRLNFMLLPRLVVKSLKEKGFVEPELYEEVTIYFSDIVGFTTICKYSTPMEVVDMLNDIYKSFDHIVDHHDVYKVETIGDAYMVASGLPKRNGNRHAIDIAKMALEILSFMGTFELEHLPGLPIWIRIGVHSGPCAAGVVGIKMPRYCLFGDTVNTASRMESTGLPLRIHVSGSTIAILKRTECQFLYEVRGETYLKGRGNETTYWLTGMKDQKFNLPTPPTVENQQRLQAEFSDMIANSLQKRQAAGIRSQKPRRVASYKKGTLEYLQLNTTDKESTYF

[3] = target: T2, guanylyl cyclase type B (GC-B) (Rattus norvegicus, UniProt P16067); assay: CNP-induced cyclic GMP accumulation in RFL-6 fibroblast cells; details: RFL-6 cells, 1 μM CNP, 50 μM compound
T2 sequence (P16067 17-1047): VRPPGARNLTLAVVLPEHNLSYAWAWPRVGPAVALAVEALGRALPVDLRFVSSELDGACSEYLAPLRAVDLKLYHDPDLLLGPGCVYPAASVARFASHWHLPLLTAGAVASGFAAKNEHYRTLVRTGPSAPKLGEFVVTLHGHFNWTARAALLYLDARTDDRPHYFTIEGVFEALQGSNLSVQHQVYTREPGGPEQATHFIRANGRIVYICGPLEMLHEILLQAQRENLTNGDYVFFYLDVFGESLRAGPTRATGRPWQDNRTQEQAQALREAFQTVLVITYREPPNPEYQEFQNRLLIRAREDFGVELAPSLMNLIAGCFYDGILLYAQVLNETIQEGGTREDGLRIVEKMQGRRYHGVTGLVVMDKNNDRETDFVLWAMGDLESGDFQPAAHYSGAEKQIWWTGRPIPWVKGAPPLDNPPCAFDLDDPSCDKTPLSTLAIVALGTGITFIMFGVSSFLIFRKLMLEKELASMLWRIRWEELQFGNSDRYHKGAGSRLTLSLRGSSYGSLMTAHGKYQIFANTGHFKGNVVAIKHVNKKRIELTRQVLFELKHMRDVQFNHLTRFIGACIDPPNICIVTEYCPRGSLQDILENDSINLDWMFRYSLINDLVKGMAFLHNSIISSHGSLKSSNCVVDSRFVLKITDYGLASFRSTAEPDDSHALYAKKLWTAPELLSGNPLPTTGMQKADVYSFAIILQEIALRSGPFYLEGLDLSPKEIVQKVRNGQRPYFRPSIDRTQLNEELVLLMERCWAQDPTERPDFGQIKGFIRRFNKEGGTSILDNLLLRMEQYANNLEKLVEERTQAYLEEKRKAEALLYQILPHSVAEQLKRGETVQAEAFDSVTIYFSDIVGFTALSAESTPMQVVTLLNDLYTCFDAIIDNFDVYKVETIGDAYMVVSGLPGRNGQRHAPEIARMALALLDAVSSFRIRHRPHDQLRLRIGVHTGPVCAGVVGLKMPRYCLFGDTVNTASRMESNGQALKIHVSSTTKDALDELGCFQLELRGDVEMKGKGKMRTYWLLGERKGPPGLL

**Q.** Which results are given for `Cn1c2c(c(=O)n(C)c1=O)C(c1cccc(Br)c1)C1=C(N2)c2ccccc2C1=O` (centres unmarked) [compound IIb]?
**A.** amount of cyclic AMP accumulated (adenylyl cyclase): 1.2±0.1 nmol/mg protein; inhibition of cholera toxin-induced cyclic AMP (adenylyl cyclase; T84 cells, cholera toxin 1 μg/ml, 50 μM compound): 84.6%; IC50 [1]: 11.2 µM; liquid accumulation (volume per loop length) (rabbit intestinal loop; rabbit loops injected with 100 nM STa and 50 μM compound, STa+vehicle 0.62±0.05, PBS 0.18±0.03): 0.15 ± 0.06 mL/cm; inhibition of STa-stimulated liquid accumulation (rabbit intestinal loop; rabbit loops, 100 nM STa, 50 μM compound): completely; inhibition of STa-induced activation of GC-C (FIG. 2) [2]: inhibition; inhibition at 50 µM ([2]; 100 nM STa, 50 μM compound): 84.7%; level of cyclic GMP ([2]; 100 nM STa, 50 μM compound, vehicle 124±10, basal 6±2): 24±6 pmol/mg protein; IC50 ([2]; 100 nM STa, read-out: IC50, inhibition of cyclic GMP synthesis): 3.4 µM; STa concentration-dependent accumulation of cyclic GMP ([2]; increasing STa 1 nM to 5 μM, 50 μM compound): significantly suppressed; inhibition of cyclic GMP accumulation (FIG. 6) [3]: inhibition
